From patent publication US8796289B2 (AbbVie Inc., priority 2011, dated 2014)

The compounds below were run against GST-tagged-Wee1 kinase (Homo sapiens, UniProt P30291) (assay: Wee1 time-resolved fluorescence equilibrium binding assay (displacement of Oregon Green-labeled ATP-competitive kinase probe)).
Description: Wee1 kinase was assayed using a time-resolved fluorescence equilibrium binding assay monitoring displacement of a rapidly reversible Oregon Green-labeled ATP-competitive kinase probe (N-(2-(2-(2-(4-(4-(5-chloro-4-(2-(1-hydroxycyclobutyl)thiazol-5-yl)-1H-pyrrolo[2,3-b]pyridin-2-yl)phenyl)piperazin-1-yl)ethoxy)ethoxy)ethyl)-2′,7′-difluoro-3′,6′-dihydroxy-3-oxo-3H-spiro[isobenzofuran-1,9′-xanthene]-5-carboxamide) by competitive Wee1 inhibitors.

Sequence of GST-tagged-Wee1 kinase (P30291 whole entry): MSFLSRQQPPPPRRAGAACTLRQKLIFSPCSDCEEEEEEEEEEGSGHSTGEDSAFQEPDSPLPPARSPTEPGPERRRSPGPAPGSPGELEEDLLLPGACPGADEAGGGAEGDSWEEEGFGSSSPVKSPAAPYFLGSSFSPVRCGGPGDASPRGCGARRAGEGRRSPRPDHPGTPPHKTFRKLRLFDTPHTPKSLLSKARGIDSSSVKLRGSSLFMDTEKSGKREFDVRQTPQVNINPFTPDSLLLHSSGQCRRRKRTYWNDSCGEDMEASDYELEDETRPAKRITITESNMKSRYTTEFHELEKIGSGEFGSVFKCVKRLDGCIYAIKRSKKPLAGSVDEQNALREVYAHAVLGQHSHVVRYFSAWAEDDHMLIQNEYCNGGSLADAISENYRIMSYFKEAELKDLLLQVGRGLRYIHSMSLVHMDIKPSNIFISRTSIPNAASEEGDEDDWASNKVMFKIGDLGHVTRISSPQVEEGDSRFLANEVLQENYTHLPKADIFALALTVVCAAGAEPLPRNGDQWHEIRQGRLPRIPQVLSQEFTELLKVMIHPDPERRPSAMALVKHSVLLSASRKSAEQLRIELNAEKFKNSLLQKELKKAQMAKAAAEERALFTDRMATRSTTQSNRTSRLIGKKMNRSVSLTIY

Ki | SMILES
0.27 nM | Cc1nn(-c2c(Cl)cncc2Cl)c(=O)c2cnc(Nc3ccc4c(c3)CN(C)CC43CC3)nc12 [Example 487, 6-(3,5-dichloropyridin-4-yl)-8-methyl-2-[(2′-methyl-2′,3′-dihydro-1′H-spiro[cyclopropane-1,4′-isoquinolin]-7′-yl)amino]pyrimido[4,5-d]pyridazin-5(6H)-one]
0.29 nM | Cc1nn(-c2c(Cl)cncc2Cl)c(=O)c2cnc(Nc3ccc4c(c3)CN(C)C4(C)C)nc12 [Example 488, 6-(3,5-dichloropyridin-4-yl)-8-methyl-2-[(1,1,2-trimethyl-2,3-dihydro-1H-isoindol-5-yl)amino]pyrimido[4,5-d]pyridazin-5(6H)-one]
0.089 nM | Cc1nn(-c2c(Cl)cccc2Cl)c(=O)c2cnc(Nc3ccc4c(c3)CNC4(C)C)nc12 [Example 489, 6-(2,6-dichlorophenyl)-2-[(1,1-dimethyl-2,3-dihydro-1H-isoindol-5-yl)amino]-8-methylpyrimido[4,5-d]pyridazin-5(6H)-one]
0.11 nM | Cc1nn(-c2c(Cl)cccc2Cl)c(=O)c2cnc(Nc3ccc4c(c3)CN(C)CC4)nc12 [Example 490, 6-(2,6-dichlorophenyl)-8-methyl-2-[(2-methyl-1,2,3,4-tetrahydroisoquinolin-7-yl)amino]pyrimido[4,5-d]pyridazin-5(6H)-one]
0.26 nM | Cc1nn(-c2c(Cl)cccc2Cl)c(=O)c2cnc(Nc3ccc4c(c3)CN(C)C4)nc12 [Example 491, 6-(2,6-dichlorophenyl)-8-methyl-2-[(2-methyl-2,3-dihydro-1H-isoindol-5-yl)amino]pyrimido[4,5-d]pyridazin-5(6H)-one]
0.56 nM | CCc1nn(-c2c(Cl)cccc2Cl)c(=O)c2cnc(Nc3ccc4c(c3)CCN(C)C4)nc12 [Example 492, 6-(2,6-dichlorophenyl)-8-ethyl-2-[(2-methyl-1,2,3,4-tetrahydroisoquinolin-6-yl)amino]pyrimido[4,5-d]pyridazin-5(6H)-one]
0.86 nM | CCc1nn(-c2c(Cl)cccc2Cl)c(=O)c2cnc(Nc3ccc4c(c3)CN(C)CC4)nc12 [Example 493, 6-(2,6-dichlorophenyl)-8-ethyl-2-[(2-methyl-1,2,3,4-tetrahydroisoquinolin-7-yl)amino]pyrimido[4,5-d]pyridazin-5(6H)-one]
0.31 nM | CCc1nn(-c2c(Cl)cccc2Cl)c(=O)c2cnc(Nc3ccc4c(c3)CN(C)C4)nc12 [Example 494, 6-(2,6-dichlorophenyl)-8-ethyl-2-[(2-methyl-2,3-dihydro-1H-isoindol-5-yl)amino]pyrimido[4,5-d]pyridazin-5(6H)-one]
0.16 nM | Cc1cccc(Cl)c1-n1nc(C)c2nc(Nc3ccc4c(c3)CNCC4)ncc2c1=O [Example 495, 6-(2-chloro-6-methylphenyl)-8-methyl-2-(1,2,3,4-tetrahydroisoquinolin-7-ylamino)pyrimido[4,5-d]pyridazin-5(6H)-one]
0.34 nM | Cc1cccc(Cl)c1-n1nc(C)c2nc(Nc3ccc4c(c3)CCNC4)ncc2c1=O [Example 496, 6-(2-chloro-6-methylphenyl)-8-methyl-2-(1,2,3,4-tetrahydroisoquinolin-6-ylamino)pyrimido[4,5-d]pyridazin-5(6H)-one]
0.26 nM | Cc1cccc(Cl)c1-n1nc(C)c2nc(Nc3ccc4c(c3)CNCC4(C)C)ncc2c1=O [Example 497, 6-(2-chloro-6-methylphenyl)-2-[(4,4-dimethyl-1,2,3,4-tetrahydroisoquinolin-7-yl)amino]-8-methylpyrimido[4,5-d]pyridazin-5(6H)-one]
0.23 nM | Cc1cccc(Cl)c1-n1nc(C)c2nc(Nc3ccc4c(c3)CN(C)CC4(C)C)ncc2c1=O [Example 498, 6-(2-chloro-6-methylphenyl)-8-methyl-2-[(2,4,4-trimethyl-1,2,3,4-tetrahydroisoquinolin-7-yl)amino]pyrimido[4,5-d]pyridazin-5(6H)-one]
